Entries after “also recorded” stand apart in the source; their conditions may differ.
What was measured:
[1] = Transition of crystal B into crystal A in ethanol/water suspension (HPLC, XRD); type: physicochemical; conditions: crystal A versus crystal B
Method: Five grams of (R)-3-[2-(2-amino-5-trifluoromethoxybenzamido)acetamido]-1-(6-methylindol-3-ylmethyl)pyrrolidine was suspended in 232 mL of ethanol/water (1.22/1), and the suspension was stirred for 3 hours in an oil bath at 20° C. The precipitated crystals were filtered off and dried at 50° C. under reduced pressure. Yield Amount: 4.25 g (yield: 85%)
HPLC pattern and XRD diagram were measured to confirm that the resulting crystal was crystal A of (R)-3-[2-(2-amino-5-trifluoromethoxybenzamido)acetamido]-1-(6-methylindol-3-ylmethyl)pyrrolidine.

[2] = Storage stability comparison in a thermostatic chamber (HPLC purity, XRD crystal form); type: physicochemical; conditions: for Purity: HPLC
Text: Crystal A, crystal B and amorphous form of (R)-3-[2-(2-amino-5-trifluoromethoxybenzamido)acetamido]-1(6-methylindol-3-ylmethyl)pyrrolidine in the amount of 1.50 g, 1.50 g and 0.30 g, respectively were each placed in a transparent glass vial. They were simply covered by filter paper and kept in a thermostatic chamber. Samples were serially extracted for HPLC analysis and the appearance was also observed. Transition of crystal form was monitored by XRD analysis at the point of 163 hrs (only for crystals A and B) and 15 days (for all the samples) from the start. The “time” means storage time. The “temperature” is the preset temperature of the thermostatic chamber used for the storage, which was jumped up at 163 hrs from the start.

[3] = storage 163 hrs at 40 °C (temperature then raised 40 to 60 °C)
[4] = storage 192 hrs, 60 °C from 163 hrs
[5] = storage 240 hrs, 60 °C from 163 hrs
[6] = storage 15 days, 60 °C from 163 hrs
[7] = storage time: initial value, 40 °C, glass vial covered by filter paper

Relative stability of the two crystal forms [1]	Purity ([2]; storage 24 hrs, 40 °C) [%]	Purity ([2]; storage 71 hrs, 40 °C) [%]	Purity ([2]; storage 144 hrs, 40 °C) [%]	Crystal form (XRD) [2, 3]	Purity [2, 4] [%]	Purity [2, 5] [%]	Crystal form (XRD) [2, 6]	Purity [2, 6] [%]	Purity [2, 7] [%]	SMILES	Storage stability (degradation), in words ([2]; conclusion from Table 5)
higher than that of crystal B	98.89	98.88	98.80	Crystal A	98.82	98.82	Crystal A	98.75	98.79	Cc1ccc2c(CN3CC[C@@H](NC(=O)CNC(=O)c4cc(OC(F)(F)F)ccc4N)C3)c[nH]c2c1 [Crystal A, (R)-3-[2-(2-amino-5-trifluoromethoxybenzamido)acetamido]-1-(6-methylindol-3-ylmethyl)pyrrolidine]	–
–	99.22	99.31	99.22	Crystal B	99.28	99.19	Crystal B	99.28	99.20	Cc1ccc2c(CN3CC[C@@H](NC(=O)CNC(=O)c4cc(OC(F)(F)F)ccc4N)C3)c[nH]c2c1 [Crystal B, (R)-3-[2-(2-amino-5-trifluoromethoxybenzamido)acetamido]-1-(6-methylindol-3-ylmethyl)pyrrolidine]	–
–	97.78	97.55	97.25	–	95.88	94.33	amorphous	91.14	98.03	Cc1ccc2c(CN3CC[C@@H](NC(=O)CNC(=O)c4cc(OC(F)(F)F)ccc4N)C3)c[nH]c2c1 [amorphous form, (R)-3-[2-(2-amino-5-trifluoromethoxybenzamido)acetamido]-1-(6-methylindol-3-ylmethyl)pyrrolidine]	degradation of amorphous form; also recorded: less storage stability compared to the crystal forms

Source: US20090076120A1, “Crystal of Aminopyrrolidine Derivative and Production Method Thereof” (TEIJIN PHARMA LIMITED, priority 2005, published 2009)
